{"source": "patent US20060263453A1", "about": "“Methods and compositions for modulating glutamate dehydrogenase” (priority 2004, published 2006)", "key": {"rat islets [1]": {"test_system": "rat islets", "assay": "glucose stimulated insulin secretion in 120 minute run-down islets", "format": "cell-based", "method": "Under brief “run-down” conditions used for the above GSIS analysis, where glucose was removed from the cells for only […], the levels of high-energy metabolites (i.e., GTP and ATP) have not been depleted and these effectively shut down GDH activity. This, in turn, eliminated any effect GDH might have on insulin secretion. Therefore, the effects of EGCG were also tested on […] that had been “run-down” for a longer period of time (120 minutes) prior to glucose stimulation (FIG. 11). Specifically, isolated rat islets were cultured with 10 mM glucose for 3 days and then perifused in the absence of glucose and in the presence of 0 or 20 μM EGCG (or 20 μM EGC) for “run-down” periods of 120 minutes prior to stimulation with a glucose ramp (0 to 25 mM, 0.5 mM/minute). Finally, islets were exposed to 30 mM KCl. The insert highlighted the insulin secretion from time=120 minutes to 140 minutes."}, "[2]": {"conditions": "cited from earlier work"}, "[3]": {"test_system": "HI/HA mutant forms of GDH (R265K, R269C, E296A, S448P, H454Y)", "assay": "kinetic analysis of HI/HA mutant forms of GDH", "format": "biochemical, human", "conditions": "FIG. 4", "method": "(§1) First, aliquots of GDH were extensively dialyzed against 0.1M sodium phosphate buffer, pH 7.0, which contained 1 mM ethylenediaminetetraacetic acid (EDTA). The enzyme concentrations were adjusted to 1 mg/ml and the amount of enzyme added to the reaction mixture, for kinetic analysis, was adjusted to yield optimal steady state velocity measurements. All solutions were made immediately prior to use. Enzyme assays were performed by monitoring reduced coenzyme absorbance at 340 nm using a Shimadzu UV-1601 spectrophotometer. The reductive amination reactions were performed in 3 mL volumes at pH 7.0 in the presence of 0.1 mM nicotinamide adenine dinucleotide (NADH), 50 mM NH4Cl, and 5 mM 2-oxoglutarate. The rate of NADH oxidation was calculated using an extinction coefficient of 6.22 mM^−1 cm^−1.\nTo this end, EGCG was tested against five different HI/HA mutant forms of GDH, namely, R265K, R269C, E296A, S448P, and H454Y. In addition, EGCG was tested against human wild type GDH (“WT”), GDH from Tetrahymena thermophilia (“tGDH”) that, like the HI/HA mutant GDH enzymes, is not regulated by GTP, and a human GDH that was missing a certain 48 residue ‘antenna-like’ feature protruding from the top of each of its six subunits that is necessary for ADP, GTP, and Palmitoyl CoA regulation. […]"}, "[4]": {"conditions": "ethanol, DMSO, dimethyl formamide; stored at −20° C.; cited from earlier work"}, "GDH [5]": {"target": "T1, GDH (Bos taurus, UniProt P00366)", "T1 construct": "purchased Sigma Aldrich Chemical Company (St. Louis, Mo.)", "T1 sequence (P00366 58-558)": "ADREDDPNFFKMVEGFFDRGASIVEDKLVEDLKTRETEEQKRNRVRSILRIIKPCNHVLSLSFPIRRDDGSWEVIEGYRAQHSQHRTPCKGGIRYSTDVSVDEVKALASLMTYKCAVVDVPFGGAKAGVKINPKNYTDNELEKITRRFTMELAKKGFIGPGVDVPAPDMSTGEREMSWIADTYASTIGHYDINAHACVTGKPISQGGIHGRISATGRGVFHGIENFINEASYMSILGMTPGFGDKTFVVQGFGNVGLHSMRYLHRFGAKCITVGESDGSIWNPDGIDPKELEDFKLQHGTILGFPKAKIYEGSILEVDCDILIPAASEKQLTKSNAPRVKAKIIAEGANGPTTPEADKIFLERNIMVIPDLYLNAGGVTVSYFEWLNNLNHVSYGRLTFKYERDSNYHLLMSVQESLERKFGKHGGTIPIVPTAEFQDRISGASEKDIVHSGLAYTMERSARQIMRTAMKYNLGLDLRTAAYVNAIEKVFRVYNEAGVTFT", "assay": "steady state kinetic analysis of reductive amination, NADH or 2-oxoglutarate varied (Lineweaver-Burke plots)", "format": "biochemical, bovine", "set-up": "Y-intercept (Lineweaver-Burke): unit not given beside the values", "method": "as §1\nIn this Example, EGCG was added to a reaction (at a final concentration of 0.0, 0.3, or 0.6 μM), along with various concentrations of NADH or 2-oxoglutarate, to further ascertain how EGCG inhibits the reductive amination reaction catalyzed by GDH. Such kinetic analysis was carried out as described above in Example 1."}, "rat islets [6]": {"test_system": "rat islets", "assay": "insulin secretion and oxygen consumption during glucose stimulation", "format": "cell-based", "method": "Next, insulin secretion and oxygen consumption were measured, as described herein, during glucose stimulation to confirm the above results. Isolated rat islets were isolated and cultured, as described above, with 10 mM glucose for 3 days and subsequently perifused in the oxygen consumption measurement apparatus described above. […] In general, FCCP is known to stimulate Mg^2+-ATPase activity, inhibit β-amyloid production, and mimic the effect of selective glutamate agonist N-methyl-D-aspartate (NMDA) on mitochondrial superoxide production. The results shown in FIG. 9 are presented as means±S.E. for 1000 islets from 3 separate experiments. Due to the high density of data, S.E. is only shown in every 20 samples."}, "GDH [7]": {"target": "T1, GDH", "assay": "abrogation of EGCG inhibition of GDH by leucine, BCH and ADP", "format": "biochemical, bovine", "method": "as §1\nThe ability of the activators BCH, leucine, and ADP to reverse EGCG regulation on GDH was next examined. More particularly, kinetic analysis of GDH activity was carried out as described in Example 1, wherein each reaction contained either (a) 0 μM EGCG plus leucine; (b) 1 μM EGCG plus leucine; (c) 0 μM EGCG plus BCH; (d) 1 μM EGCG plus BCH; (e) 0 μM EGCG plus ADP; or (f) 1 μM EGCG plus ADP."}, "rat islets [8]": {"test_system": "rat islets", "assay": "BCH-stimulated insulin secretion in perifused islets (120 minute run-down, BCH ramp)", "format": "cell-based, Wistar rat", "method": "In this Example, adult male Wistar rat islets were isolated by collagenase digestion and initially cultured in glucose-free RPMI […] medium (Sigma Aldrich Chemical Company, St. Louis, Mo.). The culture medium was supplemented with 10% fetal bovine serum, 2 mM glutamine, 100 units/mL penicillin, and 50 μg/mL streptomycin.\nThe islets were then perifused in the absence of glucose and in the presence of 2 mM glutamine (and the different concentrations of EGCG or EGC shown in FIG. 5) for run-down periods of 120 minutes prior to stimulation with a BCH ramp (0 to 10 mM, 0.2 mM/minute). Specifically, 100 cultured rat islets were loaded onto nylon filters in a small chamber and perifused in a Krebs-Ringer bicarbonate buffer (115 mmol/liter NaCl, 24 mmol/liter NaHCO3, 5 mmol/liter KCl, 1 mmol/liter MgCl2, 2.5 mmol/liter CaCl2, in 10 mM HEPES, pH 7.4) with 0.25% bovine serum albumin at a flow rate of 2 mL/minute. Perifusate solutions were gassed with 95% O2/5% CO2 and maintained at 37° C. Finally, the islets were exposed to 30 mM KCl. Samples were collected every minute to measure insulin levels by radioimmunoassay."}, "[9]": {"conditions": "ethanol, DMSO, dimethyl formamide"}, "[10]": {"conditions": "2-oxoglutarate varied, [EGCG] 0.3 μM"}, "[11]": {"conditions": "2-oxoglutarate varied, [EGCG] 0.6 μM"}}, "note": "Like-named read-outs stand apart in the source and are kept apart here."}
{"smiles": "O=C(O[C@@H]1Cc2c(O)cc(O)cc2O[C@@H]1c1cc(O)c(O)c(O)c1)c1cc(O)c(O)c(O)c1", "note": "[EGCG, (2R,3R)-2-(3,4,5-Trihydroxyphenyl)-3,4-dihydro-1 (2H)-benzopyran-3,5,7-triol 3-(3,4,5-trihydroxybenzoate)]", "values": [{"measurement": "potentiation of GSIS", "setting": "rat islets [1]; 20 μM, 120 minute run-down, FIG. 11", "value": "potentiates"}, {"measurement": "effect on KCl-stimulated release of insulin", "setting": "rat islets [1]; 30 mM KCl", "value": "neither EGCG or EGC affected"}, {"measurement": "solubility in organic solvents", "setting": "[2]; [9]", "value": "at least 20 mg/mL"}, {"measurement": "soluble in organic solvents", "setting": "[2]; [9]", "value": "soluble"}, {"measurement": "solubility in phosphate buffered saline (PBS)", "setting": "[2]; pH 7.2", "value": "at least 25 mg/mL"}, {"measurement": "inhibition of the activity of HI/HA GDH enzymes", "setting": "[3]", "value": "substantially the same efficacy as with wild type human GDH"}, {"measurement": "stability in organic solvents", "setting": "[4]", "value": "at least six months"}, {"measurement": "Slope (Lineweaver-Burke)", "setting": "GDH [5]; [10]", "value": "0.039 ± 0.002"}, {"measurement": "Y-intercept (Lineweaver-Burke)", "setting": "GDH [5]; [10]", "value": "0.24 ± 0.1"}, {"measurement": "Slope (Lineweaver-Burke)", "setting": "GDH [5]; [11]", "value": "0.15 ± 0.02"}, {"measurement": "Y-intercept (Lineweaver-Burke)", "setting": "GDH [5]; [11]", "value": "0.097 ± 0.5"}, {"measurement": "Slope (Lineweaver-Burke)", "setting": "GDH [5]; NADH varied, [EGCG] 0.3 μM", "value": "0.0026 ± 0.0002"}, {"measurement": "Y-intercept (Lineweaver-Burke)", "setting": "GDH [5]; NADH varied, [EGCG] 0.3 μM", "value": "0.15 ± 0.01"}, {"measurement": "Slope (Lineweaver-Burke)", "setting": "GDH [5]; NADH varied, [EGCG] 0.6 μM", "value": "0.0040 ± 0.0003"}, {"measurement": "Y-intercept (Lineweaver-Burke)", "setting": "GDH [5]; NADH varied, [EGCG] 0.6 μM", "value": "0.2000 ± 0.02"}, {"measurement": "mode of inhibition", "setting": "GDH [5]; versus NADH and 2-oxoglutarate", "value": "non-competitive inhibition"}, {"measurement": "effect on GSIS", "setting": "rat islets [6]; FIG. 9A", "value": "does not affect"}, {"measurement": "effect on respiration during glucose stimulation", "setting": "rat islets [6]; FIG. 9B", "value": "does not affect"}, {"measurement": "inhibition at 1 µM", "setting": "GDH [7]; 1 μM EGCG plus leucine, BCH or ADP, read-out: EGCG inhibition at the highest concentration of activators", "value": "~30", "unit": "%"}, {"measurement": "inhibition at 1 µM", "setting": "GDH [7]; 1 μM EGCG, without activator, read-out: inhibition of the reaction", "value": "> 80", "unit": "%"}, {"measurement": "intrinsic ability of the cells to secrete insulin (depolarization by KCl)", "setting": "rat islets [8]; 30 mM KCl", "value": "did not affect"}, {"measurement": "BCH stimulation of insulin secretion blocked", "setting": "rat islets [8]; FIG. 5", "value": "blocked"}]}
